Laboratory results from ChEMBL document CHEMBL1201862, “PubChem BioAssay data set” (2004).
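Each compound was tested at five concentrations against cells in 96-well plates for 48 hours. GI50: concentration for 50% inhibition of growth.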 The source made the active and inactive calls. Cut-off read from the data, not from the text of the source: active = GI50 up to about 1.1 µM and inactive = higher.

Columns and labels:
Assay in all cases: DTP human tumour cell line panel, 48 h
SR = test system: SR
OVCAR-3 = test system: OVCAR-3
OVCAR-4 = test system: OVCAR-4
SF-295 = test system: SF-295
T47D = test system: T47D
MCF7 = test system: MCF7
MOLT-4 = test system: MOLT-4
SK-MEL-5 = test system: SK-MEL-5
HCC 2998 = test system: HCC 2998
HOP-62 = test system: HOP-62
MDA-N = test system: MDA-N
KM12 = test system: KM12
HL-60 = test system: HL-60
K562 = test system: K562
COLO 205 = test system: COLO 205
U-251 = test system: U-251
OVCAR-5 = test system: OVCAR-5
SNB-19 = test system: SNB-19
NCI-H226 = test system: NCI-H226
M14 = test system: M14

Row | SMILES | GI50 (SR) | GI50 (OVCAR-3) | GI50 (OVCAR-4) | GI50 (SF-295) | GI50 (T47D) | GI50 (MCF7) | GI50 (MOLT-4) | GI50 (SK-MEL-5) | GI50 (HCC 2998) | GI50 (HOP-62) | GI50 (MDA-N) | GI50 (KM12) | GI50 (HL-60) | GI50 (K562) | GI50 (COLO 205) | GI50 (U-251) | GI50 (OVCAR-5) | GI50 (SNB-19) | GI50 (NCI-H226) | GI50 (M14)
1 | C=C1CC(CNc2cc(Cl)nc(N)n2)C1 | > 100 µM (inactive) | 95.7 µM (inactive) | 57.1 µM (inactive) | > 100 µM (inactive) | > 10 µM (inactive) | > 100 µM (inactive) | > 100 µM (inactive) | 50.5 µM (inactive) | > 100 µM (inactive) | > 100 µM (inactive) | > 100 µM (inactive) | > 100 µM (inactive) | > 100 µM (inactive) | 71.6 µM (inactive) | > 100 µM (inactive) | 55.6 µM (inactive) | > 100 µM (inactive) | > 100 µM (inactive) | 54.2 µM (inactive) | 
2 | O=C1C2=Cc3ccccc3OC2(O)Oc2cc3ccccc3cc21 (stereo not given) | > 100 µM (inactive) | 57.8 µM (inactive) | 49.7 µM (inactive) | 94.8 µM (inactive) | > 100 µM (inactive) | > 100 µM (inactive) | > 100 µM (inactive) | > 100 µM (inactive) | 28.1 µM (inactive) | > 100 µM (inactive) | > 100 µM (inactive) | 41.4 µM (inactive) |  | > 100 µM (inactive) | > 100 µM (inactive) | 50.9 µM (inactive) | > 100 µM (inactive) |  | 56.1 µM (inactive) | > 100 µM (inactive)
3 | O=C(O)CN1CCNCCN(CP(=O)(O)O)CC1 | > 20.2 µM (inactive) |  | 24.6 µM (inactive) | 26.2 µM (inactive) | > 100 µM (inactive) | 6.22 µM (inactive) | 4.34 µM (inactive) | 4.28 µM (inactive) | 3.28 µM (inactive) | > 100 µM (inactive) | 5.35 µM (inactive) | 5.47 µM (inactive) | 3.22 µM (inactive) | 3.92 µM (inactive) | 2.84 µM (inactive) | > 24.3 µM (inactive) | 6.52 µM (inactive) | > 100 µM (inactive) | > 39.1 µM (inactive) | 16.6 µM (inactive)
4 | Cc1cc(CN2CCCCC2)c(O)c(CN2CCCCC2)c1 | > 100 µM (inactive) | > 100 µM (inactive) | > 100 µM (inactive) | > 100 µM (inactive) | > 100 µM (inactive) | > 100 µM (inactive) |  | > 100 µM (inactive) | > 100 µM (inactive) | > 100 µM (inactive) | > 100 µM (inactive) | > 100 µM (inactive) | > 100 µM (inactive) | > 100 µM (inactive) | > 100 µM (inactive) | > 100 µM (inactive) | > 100 µM (inactive) | > 100 µM (inactive) | > 100 µM (inactive) | > 100 µM (inactive)
5 | CCOC(=O)C(=O)N/N=C1\C(=O)Nc2ccccc21 | > 100 µM (inactive) |  | > 100 µM (inactive) | > 100 µM (inactive) | > 100 µM (inactive) | > 100 µM (inactive) | > 100 µM (inactive) | > 100 µM (inactive) | > 100 µM (inactive) | > 100 µM (inactive) | > 100 µM (inactive) | > 100 µM (inactive) |  | > 100 µM (inactive) | > 100 µM (inactive) | > 100 µM (inactive) | > 100 µM (inactive) | > 100 µM (inactive) | > 100 µM (inactive) | > 100 µM (inactive)
6 | CCN(CC)CC(=O)O[C@]1(CC)C(=O)OCc2c1cc1n(c2=O)Cc2cc3ccccc3nc2-1 | < 0.01 µM (active) | 0.219 µM (active) | 0.201 µM (active) | 0.0102 µM (active) | < 0.01 µM (active) | < 0.01 µM (active) | < 0.01 µM (active) | 0.0313 µM (active) | 0.149 µM (active) | < 0.01 µM (active) | 0.0951 µM (active) | 0.149 µM (active) | 0.0171 µM (active) | 0.0451 µM (active) | 0.209 µM (active) | < 0.01 µM (active) | 0.0885 µM (active) | < 0.01 µM (active) | 0.0209 µM (active) | < 0.0201 µM (active)
7 | Cc1ccc(C(=O)N/N=C(\N=N\c2ccccc2Cl)c2ccc(N(C)C)cc2)cc1 | 18.1 µM (inactive) | 30.3 µM (inactive) | 7.33 µM (inactive) | 28.8 µM (inactive) | 2.64 µM (inactive) | 28.2 µM (inactive) | 20 µM (inactive) | 21.3 µM (inactive) | 25.1 µM (inactive) |  | 11.5 µM (inactive) | 21.9 µM (inactive) | 14.1 µM (inactive) | 17.1 µM (inactive) | 38.6 µM (inactive) | 62.1 µM (inactive) | 68.4 µM (inactive) | 28.1 µM (inactive) | 60.8 µM (inactive) | 42.7 µM (inactive)
8 | C=C1C(=O)O[C@H]2C/C(C)=C/CC[C@]3(C)CCC[C@](C)(CC[C@@H]12)O3 | 4.61 µM (inactive) | 9.53 µM (inactive) | 15.1 µM (inactive) | 21.9 µM (inactive) | 9.71 µM (inactive) | 13 µM (inactive) | 6.71 µM (inactive) | 6.44 µM (inactive) | 7.24 µM (inactive) | 20.5 µM (inactive) | 14.6 µM (inactive) | 8.43 µM (inactive) |  | 8.49 µM (inactive) | 6.4 µM (inactive) | 8.97 µM (inactive) | 13.7 µM (inactive) | 15.8 µM (inactive) | 11.9 µM (inactive) | 
9 | CCOC(=O)N1CCNCCN(C(=O)OCC)CCNCC1 | > 100 µM (inactive) | > 100 µM (inactive) | > 100 µM (inactive) | > 100 µM (inactive) | > 100 µM (inactive) | > 100 µM (inactive) | > 100 µM (inactive) | > 100 µM (inactive) | > 100 µM (inactive) | > 100 µM (inactive) | > 100 µM (inactive) |  | > 100 µM (inactive) | > 100 µM (inactive) | > 100 µM (inactive) | > 100 µM (inactive) | > 100 µM (inactive) | > 100 µM (inactive) | > 100 µM (inactive) | > 100 µM (inactive)
10 | Cc1nn(-c2ccccc2)c2c1N=C(C(=O)O)CC(c1ccccc1)=N2 | > 10 µM (inactive) | > 10 µM (inactive) | > 10 µM (inactive) | > 10 µM (inactive) | > 10 µM (inactive) | > 10 µM (inactive) | > 10 µM (inactive) | > 10 µM (inactive) | > 10 µM (inactive) | > 10 µM (inactive) | > 10 µM (inactive) | > 10 µM (inactive) | > 10 µM (inactive) | > 10 µM (inactive) | > 10 µM (inactive) | > 10 µM (inactive) |  | > 10 µM (inactive) |  | > 10 µM (inactive)
11 | c1cc2cc(c1)CN1CCNCCN(CCNCC1)Cc1cccc(c1)CN1CCNCCN(CCNCC1)C2 | 78 µM (inactive) | > 100 µM (inactive) | > 100 µM (inactive) | > 100 µM (inactive) | > 100 µM (inactive) | > 100 µM (inactive) | > 100 µM (inactive) | > 100 µM (inactive) | > 100 µM (inactive) | > 100 µM (inactive) | > 100 µM (inactive) | > 100 µM (inactive) |  | > 100 µM (inactive) | > 100 µM (inactive) | > 100 µM (inactive) | > 100 µM (inactive) | > 100 µM (inactive) |  | > 100 µM (inactive)
12 | COc1ccccc1NC1=NCC(C)S1 (stereo not given) | > 100 µM (inactive) | > 100 µM (inactive) |  | > 100 µM (inactive) | > 100 µM (inactive) | > 100 µM (inactive) | > 100 µM (inactive) | > 100 µM (inactive) | > 100 µM (inactive) | > 100 µM (inactive) | > 100 µM (inactive) | > 100 µM (inactive) | > 100 µM (inactive) | > 100 µM (inactive) | > 100 µM (inactive) | > 100 µM (inactive) | > 100 µM (inactive) | > 100 µM (inactive) | > 100 µM (inactive) | > 100 µM (inactive)
13 | COC(=O)C1(Cc2ccc3c(c2)CCC3)Cc2ccc3c(c2C1O)CCC3 (stereo not given) | 12 µM (inactive) | 13.8 µM (inactive) | 5.79 µM (inactive) | 17.5 µM (inactive) | 8.81 µM (inactive) | 12.9 µM (inactive) | > 100 µM (inactive) | 10.2 µM (inactive) | 17.1 µM (inactive) | 14.7 µM (inactive) | 15.4 µM (inactive) | 14.8 µM (inactive) | 23.1 µM (inactive) | > 100 µM (inactive) | 12.9 µM (inactive) | 15.8 µM (inactive) |  |  | 18.5 µM (inactive) | 
14 | C=C[C@]1(O)CCC[C@]2(C)C(=O)CCC12C (stereo not given in full) | > 100 µM (inactive) | > 100 µM (inactive) | > 100 µM (inactive) | > 100 µM (inactive) | > 100 µM (inactive) | > 100 µM (inactive) | > 100 µM (inactive) | > 100 µM (inactive) | > 100 µM (inactive) | > 100 µM (inactive) | > 100 µM (inactive) | > 100 µM (inactive) | > 100 µM (inactive) | > 100 µM (inactive) | > 100 µM (inactive) | > 100 µM (inactive) | > 100 µM (inactive) | > 100 µM (inactive) | > 100 µM (inactive) | > 100 µM (inactive)
15 | O=S(=O)(O)CCS [MESNA] | > 100 µM (inactive) | > 100 µM (inactive) | > 100 µM (inactive) | > 100 µM (inactive) | > 100 µM (inactive) | > 100 µM (inactive) | > 100 µM (inactive) | > 100 µM (inactive) | > 100 µM (inactive) | > 100 µM (inactive) | > 100 µM (inactive) | > 100 µM (inactive) |  | > 100 µM (inactive) | > 100 µM (inactive) | > 100 µM (inactive) | > 100 µM (inactive) | > 100 µM (inactive) | > 100 µM (inactive) | > 100 µM (inactive)
